Data on 2 compounds can be found in patent US6191126A, “Topical use of κ opioid agonists to treat ocular pain” (Alcon Laboratories, Inc., priority 1999, dated 2001).

For assay [1], the system named is mu opioid receptor (vs delta and kappa receptors). Particulars: Goodman and Gilman, 8th Edition; cited from earlier work.
The subject of assay [2] is formalin-induced ocular pain (blinking). As to the kind of experiment: formalin-induced model of ocular pain in the rat (inhibition of blinking after topical ocular dosing). The settings on record: in vivo.

As for `CN1CC[C@]23c4c5ccc(O)c4O[C@H]2[C@@H](O)C=C[C@H]3[C@H]1C5` [Morphine], the “times greater affinity for the mu receptor than for the delta and kappa receptors” value in assay [1] was “ten”. The “% Inhibition (of blink count in first minute vs vehicle)” value in assay [2] is listed as 8.
As to `COC(=O)N1CCN(C(=O)Cc2ccc(Cl)c(Cl)c2)C(CN2CCCC2)C1` (racemic) [GR 89696], in assay [2], the “% Inhibition (of blink count in first minute vs vehicle)” value worked out at 98.
